Reference: ChEMBL document CHEMBL1158110, “Chaetopyranin, a benzaldehyde derivative, and other related metabolites from Chaetomium globosum, an endophytic fungus derived from the marine red alga Polysiphonia urceolata” (J Nat Prod, 2006)
≈ marks a conversion by molar mass, not a printed value.

Experiments:
[1] = test system: Radical scavenging activity; experiment: Antioxidant activity assessed as DPPH free radical scavenging activity; type: functional
HMEC = experiment: Cytotoxicity against HMEC; type: cell-based; conditions: Homo sapiens
SMMC-7721 = experiment: Cytotoxicity against human SMMC7721 cells; type: functional, cell-based
A549 = experiment: Cytotoxicity against human A549 cells; type: functional, cell-based

Compound | IC50 [1] [µg/mL] | IC50 (HMEC) [µg/mL] | IC50 (SMMC-7721) [µg/mL] | IC50 (A549) [µg/mL]
CCC/C=C/c1cc2c(C=O)c(O)c(CC=C(C)C)cc2o1 | 88 (≈ 295 µM) | – | – | –
CC(C)=CCc1cc2c(c(C=O)c1O)CCC(/C=C/C(C)O)O2 (configuration not stated) [CHAETOPYRANIN] | 35 (≈ 111 µM) | 15.4 (≈ 48.7 µM) | 28.5 (≈ 90.1 µM) | 39.1 (≈ 124 µM)
C/C=C/CCCCc1c(O)cc(CC=C(C)C)c(O)c1C=O [ISOTETRAHYDROAUROGLAUCIN] | 26 (≈ 86 µM) | – | – | –
COc1cc(O)c2c(c1)C(=O)c1c(O)c(C)cc(O)c1C2=O [PARIETIN] | 62 (≈ 206 µM) | – | – | –
